System: Sprague-Dawley rats
Details: rat, in vivo

CC(C)C[C@H](CN)CC(=O)O [Pregabalin, pregabalin]
activity on mechanical allodynia (von Frey), days 14 and 21: active

GCCSDPRCRYRCR [RgIA]
OXA-induced pain threshold decrease (von Frey), day 7, 30 min: reverted

Reference: patent US10633417B2 (priority 2013, dated 2020)
